Experimental data reported in ChEMBL document CHEMBL4706659, “Design, synthesis and biological evaluation of novel 2,4-diaryl pyrimidine derivatives as selective EGFR inhibitors” (Eur J Med Chem, 2021).

Tests used:
[1] = Selectivity ratio of IC50 for antiproliferative activity against human NCI-H292 cells harboring wild-type EGFR to IC50 for antiproliferative activity against human NCI-H1975 cells harboring EGFR T790M/L858R mutant; format: functional
[2] = target: Epidermal growth factor receptor (Homo sapiens, UniProt P00533, L858R); assay: Inhibition of human recombinant GST-tagged EGFR L858R mutant expressed in baculovirus expression system using tyrosine 4 peptide as substrate after 60 mins in presence of ATP FRET based Z'-LYTE assay
Epidermal growth factor receptor, sequence (P00533 25-1210 L858R limits assumed): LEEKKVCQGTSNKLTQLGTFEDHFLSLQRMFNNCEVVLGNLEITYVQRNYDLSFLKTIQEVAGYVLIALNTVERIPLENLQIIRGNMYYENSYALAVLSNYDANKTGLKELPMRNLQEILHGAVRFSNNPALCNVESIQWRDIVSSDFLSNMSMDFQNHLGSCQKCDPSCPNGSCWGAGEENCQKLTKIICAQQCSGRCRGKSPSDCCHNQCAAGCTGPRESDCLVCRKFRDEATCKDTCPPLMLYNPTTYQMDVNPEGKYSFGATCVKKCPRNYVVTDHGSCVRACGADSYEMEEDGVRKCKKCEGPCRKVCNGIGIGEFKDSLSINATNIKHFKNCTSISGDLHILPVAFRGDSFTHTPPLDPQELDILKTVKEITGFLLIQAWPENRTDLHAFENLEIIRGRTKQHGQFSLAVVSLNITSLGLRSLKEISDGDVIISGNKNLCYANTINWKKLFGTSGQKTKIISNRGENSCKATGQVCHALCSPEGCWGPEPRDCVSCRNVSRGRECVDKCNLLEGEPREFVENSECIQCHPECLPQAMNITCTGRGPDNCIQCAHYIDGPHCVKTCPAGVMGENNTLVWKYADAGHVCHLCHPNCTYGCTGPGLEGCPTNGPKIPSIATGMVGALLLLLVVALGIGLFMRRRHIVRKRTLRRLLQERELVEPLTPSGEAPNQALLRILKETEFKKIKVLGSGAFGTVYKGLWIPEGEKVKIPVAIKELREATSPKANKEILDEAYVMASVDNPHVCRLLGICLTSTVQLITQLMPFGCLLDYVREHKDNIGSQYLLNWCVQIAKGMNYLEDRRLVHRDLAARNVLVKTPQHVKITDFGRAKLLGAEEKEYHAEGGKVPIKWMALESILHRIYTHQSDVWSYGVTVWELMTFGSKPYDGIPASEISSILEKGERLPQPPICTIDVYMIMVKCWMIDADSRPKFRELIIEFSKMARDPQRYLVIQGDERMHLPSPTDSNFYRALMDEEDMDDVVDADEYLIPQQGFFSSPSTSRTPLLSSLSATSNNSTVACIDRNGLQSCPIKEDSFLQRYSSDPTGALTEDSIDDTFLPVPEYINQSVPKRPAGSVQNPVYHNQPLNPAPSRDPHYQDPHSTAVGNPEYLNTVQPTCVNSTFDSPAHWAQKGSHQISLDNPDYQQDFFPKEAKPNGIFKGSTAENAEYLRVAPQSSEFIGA

Homo sapiens = species on record: Homo sapiens; assay: Selectivity ratio of IC50 for inhibition of recombinant human GST-tagged EGFR expressed in baculovirus expression system to IC50 for inhibition of recombinant human GST-tagged EGFR T790M/L858R double mutant (668 to 1210 residues) expressed in baculovirus expression system
HK-2 = assay: Cytotoxicity against HK-2 cells assessed as reduction in cell viability by MTT assay; format: cell-based; conditions: Homo sapiens
[3] = Cytotoxicity against HLF cells assessed as reduction in cell viability by MTT assay; format: cell-based; conditions: Homo sapiens
[4] = Selectivity ratio of IC50 for human L02 cells to IC50 for antiproliferative activity against human NCI-H1975 cells; format: toxicity, cell-based; conditions: L02 cells versus NCI-H1975 cells, read-out: Ratio IC50
[5] = Selectivity ratio of IC50 for HLF cells to IC50 for antiproliferative activity against human NCI-H1975 cells
NCI-H1975 [6] = assay: Antimigratory activity against human NCI-H1975 cells harboring EGFR T790M/L858R mutant assessed as inhibition of cell migration at 9 nM measured after 24 hrs by phase contrast microscopic analysis relative to control; format: functional
NCI-H1975 [7] = assay: Antimigratory activity against human NCI-H1975 cells harboring EGFR T790M/L858R mutant assessed as inhibition of cell migration at 9 nM measured after 48 hrs by phase contrast microscopic analysis relative to control; format: functional
NCI-H1975 [8] = assay: Induction of apoptosis in human NCI-H1975 cells harboring EGFR T790M/L858R mutant assessed as early apoptotic cells at 1 nM measured after 48 hrs by Annexin-V-FITC/propidium iodide staining based flow cytometry (reference value: 0.82%); format: functional
NCI-H1975 [9] = assay: Induction of apoptosis in human NCI-H1975 cells harboring EGFR T790M/L858R mutant assessed as viable cells at 5 nM measured after 48 hrs by Annexin-V-FITC/propidium iodide staining based flow cytometry (reference value: 98.63%); format: functional; conditions: read-out: Activity
NCI-H1975 [10] = assay: Induction of apoptosis in human NCI-H1975 cells harboring EGFR T790M/L858R mutant assessed as late apoptotic cells at 5 nM measured after 48 hrs by Annexin-V-FITC/propidium iodide staining based flow cytometry (reference value: 0.04%); format: functional
NCI-H1975 [11] = assay: Induction of apoptosis in human NCI-H1975 cells harboring EGFR T790M/L858R mutant assessed as early apoptotic cells at 10 nM measured after 48 hrs by Annexin-V-FITC/propidium iodide staining based flow cytometry (reference value: 0.82%); format: functional
NCI-H1975 [12] = assay: Induction of apoptosis in human NCI-H1975 cells harboring EGFR T790M/L858R mutant assessed as necrotic cells at 10 nM measured after 48 hrs by Annexin-V-FITC/propidium iodide staining based flow cytometry (reference value: […]); format: functional
NCI-H1975 [13] = assay: Induction of apoptosis in human NCI-H1975 cells harboring EGFR T790M/L858R mutant assessed as viable cells at 1 nM measured after 72 hrs by Annexin-V-FITC/propidium iodide staining based flow cytometry (reference value: 98.66%); format: functional; conditions: read-out: Activity
NCI-H1975 [14] = assay: Induction of apoptosis in human NCI-H1975 cells harboring EGFR T790M/L858R mutant assessed as late apoptotic cells at 1 nM measured after 72 hrs by Annexin-V-FITC/propidium iodide staining based flow cytometry (reference value: 0.13%); format: functional
NCI-H1975 [15] = assay: Induction of apoptosis in human NCI-H1975 cells harboring EGFR T790M/L858R mutant assessed as viable cells at 5 nM measured after 72 hrs by Annexin-V-FITC/propidium iodide staining based flow cytometry (reference value: 98.66%); format: functional; conditions: read-out: Activity
NCI-H1975 [16] = assay: Induction of apoptosis in human NCI-H1975 cells harboring EGFR T790M/L858R mutant assessed as early apoptotic cells at 5 nM measured after 72 hrs by Annexin-V-FITC/propidium iodide staining based flow cytometry (reference value: 0.72%); format: functional
NCI-H1975 [17] = assay: Induction of apoptosis in human NCI-H1975 cells harboring EGFR T790M/L858R mutant assessed as late apoptotic cells at 5 nM measured after 72 hrs by Annexin-V-FITC/propidium iodide staining based flow cytometry (reference value: 0.13%); format: functional
NCI-H1975 [18] = assay: Induction of apoptosis in human NCI-H1975 cells harboring EGFR T790M/L858R mutant assessed as necrotic cells at 5 nM measured after 72 hrs by Annexin-V-FITC/propidium iodide staining based flow cytometry (reference value: 0.49%); format: functional
NCI-H1975 [19] = assay: Induction of apoptosis in human NCI-H1975 cells harboring EGFR T790M/L858R mutant assessed as viable cells at 10 nM measured after 72 hrs by Annexin-V-FITC/propidium iodide staining based flow cytometry (reference value: 98.66%); format: functional; conditions: read-out: Activity
NCI-H1975 [20] = assay: Induction of apoptosis in human NCI-H1975 cells harboring EGFR T790M/L858R mutant assessed as late apoptotic cells at 10 nM measured after 72 hrs by Annexin-V-FITC/propidium iodide staining based flow cytometry (reference value: 0.13%); format: functional
NCI-H1975 [21] = assay: Induction of mitochondrial membrane potential loss in human NCI-H1975 cells harboring EGFR T790M/L858R mutant assessed as cells with intact mitochondrial membrane potential at 10 nM measured after 24 hrs by JC1 staining based fluorescence microscopic analysis (reference value: 94.51%); format: functional
NCI-H1975 [22] = assay: Induction of mitochondrial membrane potential loss in human NCI-H1975 cells harboring EGFR T790M/L858R mutant assessed as cell population with mitochondrial membrane potential collapse at 10 nM measured after 24 hrs by JC1 staining based fluorescence microscopic analysis (reference value: 5.49%); format: functional
[23] = Half life in Sprague-Dawley rat at 10 mg/kg, po administered as single dose; format: ADME, organism-based; conditions: in vivo
[24] = Tmax in Sprague-Dawley rat at 10 mg/kg, po administered as single dose; format: ADME, organism-based; conditions: in vivo
[25] = Cmax in Sprague-Dawley rat at 10 mg/kg, po administered as single dose; format: ADME, organism-based; parameters: route oral, dose 10 mg/kg; conditions: in vivo
[26] = AUC (0 to t) in Sprague-Dawley rat at 2 mg/kg, iv administered as single dose; format: ADME, organism-based; parameters: dose 2 mg/kg; conditions: in vivo
NCI-H1975 [27] = assay: Antitumor activity against human NCI-H1975 cells harboring EGFR T790M/L858R mutant xenografted in nude mouse assessed as tumor volume at 15 mg/kg, po administered once daily for 7 days (reference value: 843 mm3); format: functional; conditions: time 7 day
[28] = Toxicity in nude mouse xenografted with human NCI-H1975 cells harboring EGFR T790M/L858R mutant assessed as mortality at 15 mg/kg, po administered once daily for 7 days relative to control; format: organism-based; conditions: in vivo, time 7 day, read-out: Activity

## C=CC(=O)Nc1cc(Nc2nccc(-c3cn(C4CC4)c4ccccc34)n2)c(OC)cc1[S+]([O-])CCN(C)C (stereo not given)
[1]
  Ratio IC50: 89.8
[2]
  IC50: 1.1 nM
Homo sapiens
  Ratio IC50: 15.8
HK-2
  IC50: 5.86 µM
[3]
  IC50: 6.04 µM
[4]
  selectivity ratio: 584
[5]
  Ratio IC50: 755
NCI-H1975 [6]
  inhibition at 0.009 µM: 47%
NCI-H1975 [7]
  inhibition at 0.009 µM: 74%
NCI-H1975 [8]
  Activity: 10.89%
NCI-H1975 [9]
  viability at 0.005 µM: 68.2%
NCI-H1975 [10]
  Activity: 3.64%
NCI-H1975 [11]
  Activity: 15.92%
NCI-H1975 [12]
  Activity: 21.2%
NCI-H1975 [13]
  viability at 0.001 µM: 70.3%
NCI-H1975 [14]
  Activity: 2.93%
NCI-H1975 [15]
  viability at 0.005 µM: 52.5%
NCI-H1975 [16]
  Activity: 19.59%
NCI-H1975 [17]
  Activity: 17.07%
NCI-H1975 [18]
  Activity: 10.51%
NCI-H1975 [19]
  viability at 0.01 µM: 27.4%
NCI-H1975 [20]
  Activity: 22.53%
NCI-H1975 [21]
  Activity: 59.69%
NCI-H1975 [22]
  Activity: 40.31%
[23]
  half-life: 151 min
[24]
  Tmax: 1.67 h
[25]
  Cmax: 203 ng/mL
[26]
  AUC(0-t): 335 ng·h/mL
NCI-H1975 [27]
  Activity: 56 mm3
[28]
  mortality at 168 h: < 5%
